Data on seven compounds can be found in paper PMC6926618, “Modification of Polyacrylonitrile Fibers by Coupling to Thiosemicarbazones” (Materials, 2019).

Where “and” joins values, the source holds several entries; their conditions need not be identical. Identical values can stand only once. Like-named read-outs stand apart in the source and are kept apart here. Some results are limits rather than exact numbers.

In one data set the target is tyrosinase. As to the kind of experiment: Tyrosinase activity analysis (L-DOPA oxidation, spectrophotometry at 475 nm). The data set is classed as biochemical. How it is done:
Tyrosinase activity was determined by spectrophotometry, as 3,4-dihydroxyphenylalanine (L-DOPA, Sigma) oxidation activity, with a modification of a reported method. In brief, the tyrosinase solution (50 µL) was gently added to 450 µL of phosphate buffer at a concentration of 0.05 M containing 50 µM samples. The pH of the solution was maintained at 6.8. Then, the mixture was incubated at 30 °C for 10 min and 500 µL of 5 mM L-DOPA solution was added. […] This intensity of the peaks was recorded based on time. The tyrosinase activity was analyzed from the initial rate. The buffer containing 1% DMSO was used as a control sample. The inhibition rate of the test solution against tyrosinase was calculated using the corresponding negative control as a reference, and an approximation of the half-inhibitory concentration (IC50) was estimated based on the concentration-enzyme inhibition rate curve.

The next data set relates to A549 cells. In words: MTT cytotoxicity assay. The data set is classed as cell-based. The settings on record: for Concentration of Compounds When 80% of Cells Survive: 48 h co-culture. How it is done: The cytotoxic effect of compounds was determined by using in vitro colorimetric MTT assay. The A549 cells were seeded into 96-well microtiter tissue culture plates with a final volume of 100 μL. After attachment for 24 h, the cells were treated with different concentrations (0.1, 1, 10, 50, and 100 μM) of thiosemicarbazone compounds in the culture medium. Eight replicate wells per concentration were used and all experiments were repeated in triplicate. The solvent control (DMSO) was also assayed in parallel. The cells were incubated for 24 h and 48 h with compounds. Then, MTT dye was added 4 h before the completion of the incubation periods. The resulting formazan crystals were separated from the medium and then dissolved in 100 μL DMSO. The absorbance at 490 nm was used to quantify the plates using ELx808 Absorbance Microplate Reader (Bio-Tek, Winooski, USA).

Data set [1] can be described thus: Potentiometric titration, stability constant of complex with Cu^2+. The format is physicochemical. The conditions noted are these: 25 °C, water with 20% DMSO, KNO3. Here is the method:
(§1) The stability constant of the complex was tested using a Metrohm 877 Titrino plus automatic potentiometric titrator (Metrohm, Herisau, Switzerland). The titration temperature was maintained at 25 ± 0.5 °C with pH range of 2–11. The titration solution was water solution with 20% DMSO, and the ionic strength I = […] KNO3 (aq). The initial concentration was [L] = 0.005–0.0001 mol·L^−1, [HNO3] = 0.002 mol·L^−1, [KNO3] = 0.10 mol·L^−1, and [M] = 0.0001 mol·L^−1. The total volume was 25 mL, the titration volume was 0.004 mL·D^−1, and the response time was at least 1 min. The titration was triplicate and the titration data were fitted using Hyperquad 2013 software, where the ion product of H2O was pKw = 13.85 [18]. The distribution curve of species with pH was plotted using HySS 2009 software (Version 2009, Hyperquad Co. Ltd., London, UK). Three metal ions, Cu^2+, Zn^2+, and Mn^2+, were chosen as model ions in this work. The stability constants of the thiosemicarbazone compounds forming complexes with the above three metal ions and the species distribution under different pH conditions were investigated in detail.

Data set [2] is described as follows: Potentiometric titration, stability constant of complex with Zn^2+. The data set is classed as physicochemical. The settings on record: 25 °C, water with 20% DMSO, KNO3. Here is the method: as §1
The nature of data set [3]: Potentiometric titration, stability constant of complex with Mn^2+. The data set is classed as physicochemical. The conditions noted are these: 25 °C, water with 20% DMSO, KNO3. How it is done:
as §1

The subject of another data set is E. coli. In words: Antibacterial test on plates (zones of inhibition). The data set is classed as cell-based. The conditions noted are these: 20 g/L and 10 g/L on plates, Figure 11a.
Data set [4] deals with S. aureus. As to the kind of experiment: Antibacterial test on plates (zones of inhibition). The data set is classed as cell-based. The conditions noted are these: for antibacterial activity on S. aureus (zones of inhibition): 20 g/L and 10 g/L on plates, Figure 11; for Concentration (bacteriostatic effect), S. aureus: Table 7, Figure 12.
For the next data set, the system named is B. subtilis. In words: Antibacterial test on plates (zones of inhibition). The data set is classed as cell-based. The settings on record: 20 g/L and 10 g/L on plates, Figure 11.
The subject of data set [5] is S. aureus. In words: Antibacterial test GB/T20944.3-2008, colony count, inhibition rate. The format is cell-based. The conditions noted are these: Staphylococcus aureus, DY6 at 1.0 µM vs control sample, read-out: inhibition effect (colony-forming bacterial units). How it is done: Antibacterial performance against bacteria (E. coli, S. aureus, and B. subtilis) was determined according to GB/T20944.3-2008. The inoculation suspension of bacteria was prepared and the inoculation loop was used to conduct the bacterial inoculation on the agar board for 18–24 h at 37 ± 1 °C. The sample was dipped into the conical flask filled with experimental bacteria solution with a certain concentration. After that, the oscillation culture is conducted to the samples for specified time, and 1 mL of solution was taken, diluted and distributed onto an agar plate. All plates were incubated at 37 °C for 24 h and the colonies formed were counted. […] Qt is the bacteria-colony number of viable bacteria in the plate after antibacterial treatment or grafted PAN fibers.
Figure 13 Antibacterial effect against S. aureus: (a) control sample; (b) after treatment with DY6 ay the concentration of 1.0 µM; (c) original PAN fibers; and (d) grafted DY6–PAN fibers.

The mark [6] stands for this setting: L-DOPA substrate, pH 6.8, 30 °C, approximation from concentration-inhibition curve, read-out: IC50 (semi-inhibitory concentration of tyrosinase).

With `Cc1ccc(O)c(/C=N/NC(N)=S)c1` [DY1], the IC50 on tyrosinase (setting [6]) was found to be 1880 nM. Moreover, in the data set with A549 cells, the “effective concentration (A549 cell survival rate maintained above 80%)” value is “up to 100 μM” and the “Concentration of Compounds When 80% of Cells Survive” value was <100 µM. In addition, in [1], the “logKCu^2+, n = 1” value is 19.15 ± 0.11 M^−1. For the same compound, the “logKZn^2+, n = 1” value in data set [2] came to 13.13 ± 0.21 M^−1. Besides, the “logKMn^2+, n = 1” value in data set [3] is reported as 13.67 ± 0.31 M^−1. In addition, the “antibacterial effect on E. coli” value with E. coli is listed as “do not have an antibacterial effect”. In the data set with S. aureus [4], the “antibacterial activity on S. aureus (zones of inhibition)” value was “good antibacterial activities” and the “Concentration (bacteriostatic effect), S. aureus” value came to 0.02 µM. Further, the “antibacterial activity on B. subtilis (zones of inhibition)” value in the data set with B. subtilis is given as “good antibacterial activities”.
With `NC(=S)N/N=C/c1cc(O)ccc1O` [DY2], in [1], the “logKCu^2+, n = 1” value was 18.83 ± 0.14 M^−1. Moreover, the “logKZn^2+, n = 1” value in data set [2] is 13.53 ± 0.11 M^−1. For the same compound, the “logKMn^2+, n = 1” value in [3] worked out at 14.27 ± 0.17 M^−1.
As for `NC(=S)N/N=C/c1cc([N+](=O)[O-])ccc1O` [DY3], the IC50 at tyrosinase (setting [6]) worked out at 9880 nM. In addition, in the data set with A549 cells, the “effective concentration (A549 cell survival rate maintained above 80%)” value is 50 µM and the “Concentration of Compounds When 80% of Cells Survive” value was <50 µM. Also, in data set [1], the “logKCu^2+, n = 1” value came to 19.10 ± 0.15 M^−1. Further, the “logKZn^2+, n = 1” value in data set [2] is 13.69 ± 0.12 M^−1. Moreover, the “logKMn^2+, n = 1” value in data set [3] was 14.48 ± 0.11 M^−1.
Consider `COc1ccc(/C=N/NC(N)=S)c(O)c1` [DY4], for which the IC50 on tyrosinase (setting [6]) came to 1120 nM. In addition, in the data set on A549 cells, the “effective concentration (A549 cell survival rate maintained above 80%)” value is “up to 100 μM” and the “Concentration of Compounds When 80% of Cells Survive” value is <100 µM. Also, the “logKCu^2+, n = 1” value in [1] is 18.95 ± 0.10 M^−1. The “logKZn^2+, n = 1” value in data set [2] is reported as 13.56 ± 0.17 M^−1. Besides, the “logKMn^2+, n = 1” value in data set [3] came out at 14.01 ± 0.08 M^−1. For the same compound, the “antibacterial effect on E. coli” value in the data set with E. coli is listed as “do not have an antibacterial effect”. Further, the “antibacterial activity on S. aureus (zones of inhibition)” value in the data set on S. aureus [4] is “good antibacterial activities”. Besides, the “antibacterial activity on B. subtilis (zones of inhibition)” value with B. subtilis is given as “good antibacterial activities”.
As for `NC(=S)N/N=C/c1cc(Cl)ccc1O` [DY5], on tyrosinase (setting [6]), the IC50 is 1680 nM. Further, in the data set with A549 cells, the “effective concentration (A549 cell survival rate maintained above 80%)” value was 50 µM and the “Concentration of Compounds When 80% of Cells Survive” value was <50 µM. The “logKCu^2+, n = 1” value in data set [1] came out at 19.43 ± 0.22 M^−1. Moreover, the “logKZn^2+, n = 1” value in data set [2] is 12.51 ± 0.20 M^−1. In addition, the “logKMn^2+, n = 1” value in data set [3] came out at 13.65 ± 0.16 M^−1. In addition, the “antibacterial effect on E. coli” value in the data set with E. coli is recorded as “do not have an antibacterial effect”. The “antibacterial activity on S. aureus (zones of inhibition)” value with S. aureus [4] is reported as “good antibacterial activities”. The “antibacterial activity on B. subtilis (zones of inhibition)” value in the data set with B. subtilis was “good antibacterial activities”.
For `CCN(CC)c1ccc(/C=N/NC(N)=S)c(O)c1` [DY6], the IC50 at tyrosinase (L-DOPA method, blank control 1% DMSO, read-out: IC50 (semi-inhibitory curve, Figure 3)) came out at 600 nM. Further, the IC50 on tyrosinase (setting [6]) is 600 nM. In the data set on A549 cells, the “effective concentration (A549 cell survival rate maintained above 80%)” value is listed as “up to 100 μM” and the “Concentration of Compounds When 80% of Cells Survive” value was <100 µM. Moreover, the “logKCu^2+, n = 1” value in [1] was 20.15 M^−1 and 20.15 ± 0.14 M^−1. For the same compound, in data set [2], the “logKZn^2+, n = 1” value is 14.07 M^−1 and 14.07 ± 0.37 M^−1. Besides, the “logKMn^2+, n = 1” value in data set [3] is 14.37 M^−1 and 14.37 ± 0.30 M^−1. Moreover, the “antibacterial effect on E. coli” value in the data set with E. coli is on record as “do not have an antibacterial effect”. Further, in the data set on S. aureus [4], the “antibacterial activity on S. aureus (zones of inhibition)” value is on record as “good antibacterial activities” and the “Concentration (bacteriostatic effect), S. aureus” value came out at 0.02 µM. In the data set with B. subtilis, the “antibacterial activity on B. subtilis (zones of inhibition)” value is on record as “good antibacterial activities”. The inhibition (as a rule, the relative decrease from the control value, in per cent) at 1 µM with S. aureus [5] was found to be 88.6%.
In the case of `NC(=S)N/N=C/c1ccc2c(c1)OCCO2` [DY7], at tyrosinase (setting [6]), the IC50 is 41200 nM. In the data set on A549 cells, the “effective concentration (A549 cell survival rate maintained above 80%)” value was 50 µM and the “Concentration of Compounds When 80% of Cells Survive” value is <50 µM.
